Read-outs that look alike come from different tables or passages of the source.
Key:
BTK = target: T1, BTK (Homo sapiens, UniProt Q06187); assay: BTK degradation in TMD-8 cells (HTRF assay); assay type: cell-based; settings: 6 h treatment, IC50 (DC50) of BTK degradation
T1 construct: High control=Cell group with added DMSO and without compound, indicating microplate readings without BTK degradation; endogenous in cells; host or cells: TMD-8
Experimental: (§1) TMD-8 cells were treated with compounds diluted in 0.2% DMSO, dilution was done according to the following protocol: (1) making 500× stock solution in DMSO from 1 mM by 6-fold dilution, total 8 doses were included; (2) making 2× solution in cell culture medium by transferring 0.5 μl 500× stock solution into 125 μl medium; (3) adding 15 μl of 2× solution to cells for incubation of 6 h.
After 6 h treatment, 10 μl 4× lysis buffer was added to each well; the plate was sealed and incubated for 30 min at room temperature on a plate shaker; Once the cells was lysed, 16 μL of cell lysate were transferred to a PE 384-well HTRF detection plate; 4 μL of pre-mixed HTRF antibodies were added to each well; the plate was covered with a plate sealer, and then spinned at 1000 rpm for 1 min, then incubated overnight at room temperature; the results were read on BMG PheraStar with HTRF protocol (337 nm-665 nm-620 nm).
The IC50 (DC50) value of a compound can be obtained by fitting the following equation
(§2) wherein, X and Y are known values, and IC50, Hillslope, Top and Bottom are the parameters obtained by fitting with software. Y is the inhibition percentage (calculated from the equation), X is the concentration of the compound; IC50 is the concentration of the compound when the 50% inhibition is reached. The smaller the IC50 value is, the stronger the inhibitory ability of the compound is. Vice versa, the higher the IC50 value is, the weaker the ability the inhibitory ability of the compound is; Hillslope represents the slope of the fitted curve, generally around 1 *; Bottom represents the minimum value of the curve obtained by data fitting, which is generally 0%±20%; Top represents the maximum value of the curve obtained by data fitting, which is generally 100%±20%. The experimental data were fitted by calculating and analyzing with Dotmatics data analysis software.

HEK-293 cells = assay: HEK-293 cytotoxicity detection (CellTiter-Glo); assay type: cell-based; settings: HEK-293 cells, 72 h incubation, CellTiter-Glo luminescence, IC50 of cell proliferation inhibition, read-out: HEK293
Experimental: as §1, with “HEK-293 cells” for “TMD-8 cells”, “from 5” for “from 1”, “by 4-fold” for “by 6-fold”, “0.5 ul” for “0.5 μl”, “adding 50” for “adding 15”, “of 72” for “of 6”
25 μl of the CellTiter-Glo®Reagent [(Promega) -Cat No. G7572] was added to each well in the 96-well plate. The contents were mixed for 2 minutes on an orbital shaker to induce cell lysis. The plate was then allowed to incubate at room temperature for 10 minutes to stabilize luminescent signal. Luminescence was recorded on BMG PheraStar with luminescence protocol.
The IC50 value of a compound can be obtained by fitting the following equation
as §2, with “Wherein,” for “wherein,”

T1 sequence (Q06187 whole entry): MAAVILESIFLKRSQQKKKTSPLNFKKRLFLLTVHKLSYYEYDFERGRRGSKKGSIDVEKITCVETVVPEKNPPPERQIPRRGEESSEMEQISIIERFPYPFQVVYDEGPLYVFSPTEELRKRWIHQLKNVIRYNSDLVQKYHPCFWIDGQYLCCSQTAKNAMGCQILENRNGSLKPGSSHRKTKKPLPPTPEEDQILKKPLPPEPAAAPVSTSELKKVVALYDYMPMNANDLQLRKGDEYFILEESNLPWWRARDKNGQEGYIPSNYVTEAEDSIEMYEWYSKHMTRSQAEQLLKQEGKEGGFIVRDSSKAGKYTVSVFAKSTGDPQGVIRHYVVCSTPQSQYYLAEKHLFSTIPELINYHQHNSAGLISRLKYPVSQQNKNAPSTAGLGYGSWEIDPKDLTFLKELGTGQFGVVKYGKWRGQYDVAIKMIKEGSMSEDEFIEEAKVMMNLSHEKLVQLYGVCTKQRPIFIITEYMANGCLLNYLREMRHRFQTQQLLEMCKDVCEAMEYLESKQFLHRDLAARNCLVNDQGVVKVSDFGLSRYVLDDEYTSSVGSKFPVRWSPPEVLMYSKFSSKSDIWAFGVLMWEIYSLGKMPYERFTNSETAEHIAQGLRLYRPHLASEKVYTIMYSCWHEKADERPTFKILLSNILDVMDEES

DC50 (BTK)	Compound	IC50 (HEK-293 cells)	IC50 (HEK-293 cells; Homo sapiens)
9.03 nM	5-(tert-butyl)-N—((R)-1-(4-(7-(4-(3-(4-((R)-2,6-dioxopiperidin-3-yl)phenyl)cyclobutyl)piperazin-1-yl)-9H-pyrimido[4,5-b]indol-4-yl)-3-fluoro-2-methylphenyl)ethyl)-1,2,4-oxadiazole-3-carboxamide [Example 32]	> 10000 nM	
1.52 nM	Cc1cc(-c2ncnc3[nH]c4cc(N5CCC6(CC5)CCN(C5CC(c7ccc(C8CCC(=O)NC8=O)cc7)C5)C6)ccc4c23)ccc1[C@@H](C)NC(=O)c1nc(C(C)(C)C)no1 (stereo in doubt) [Example 101, 3-(tert-butyl)-N—((R)-1-(4-(7-(2-(3-(4-((R)-2,6-dioxopiperidin-3-yl)phenyl)cyclobutyl)-2,8-diazaspiro[4.5]decan-8-yl)-9H-pyrimido[4,5-b]indol-4-yl)-2-methylphenyl)ethyl)-1,2,4-oxadiazole-5-carboxamide]		956 nM
4.94 nM	Cc1cc(-c2ncnc3[nH]c4ccc(N5CCN(CC6CCN(c7ccc(N8CCC(=O)NC8=O)cc7)CC6)CC5)cc4c23)ccc1CNC(=O)c1nc(C(C)(C)C)no1 [Example 1, 3-(tert-butyl)-N-(4-(6-(4-((1-(4-(2,4-dioxotetrahydropyrimidin-1(2H)-yl)phenyl)piperidin-4-yl)methyl)piperazin-1-yl)-9H-pyrimido[4,5-b]indol-4-yl)-2-methylbenzyl)-1,2,4-oxadiazole-5-carboxamide]		> 10000 nM
> 2000 nM	Cc1cc(-c2ncnc3[nH]c4ccc(C5CCN(CC6CCN(c7ccc(N8CCC(=O)NC8=O)cc7)CC6)CC5)cc4c23)ccc1CNC(=O)c1nc(C(C)(C)C)no1 [Example 2, 3-(tert-butyl)-N-(4-(6-(1-((1-(4-(2,4-dioxotetrahydropyrimidin-1(2H)-yl)phenyl)piperidin-4-yl)methyl)piperidin-4-yl)-9H-pyrimido[4,5-b]indol-4-yl)-2-methylbenzyl)-1,2,4-oxadiazole-5-carboxamide]		3950 nM
2.15 nM	Cc1cc(-c2ncnc3[nH]c4cc(C5CCN(CCCOc6ccc(NC7CCC(=O)NC7=O)cc6)CC5)ccc4c23)ccc1CNC(=O)c1nc(C(C)(C)C)no1 (stereo not shown) [Example 3, 3-(tert-butyl)-N-(4-(7-(1-(3-(4-((2,6-dioxopiperidin-3-yl)amino)phenoxy)propyl)piperidin-4-yl)-9H-pyrimido[4,5-b]indol-4-yl)-2-methylbenzyl)-1,2,4-oxadiazole-5-carboxamide]		> 10000 nM
0.294 nM	Cc1cc(-c2ncnc3[nH]c4cc(C5CCN(CC6CCN(c7ccc(N8CCC(=O)NC8=O)cc7)CC6)CC5)ccc4c23)ccc1CNC(=O)c1nc(C(C)(C)C)no1 [Example 4, 3-(tert-butyl)-N-(4-(7-(1-((1-(4-(2,4-dioxotetrahydropyrimidin-1(2H)-yl)phenyl)piperidin-4-yl)methyl)piperidin-4-yl)-9H-pyrimido[4,5-b]indol-4-yl)-2-methylbenzyl)-1,2,4-oxadiazole-5-carboxamide]		3660 nM
0.731 nM	Cc1cc(-c2ncnc3[nH]c4cc(C5CCN(CC6CCN(c7ccc(N8CCC(=O)NC8=O)cc7)CC6)CC5)ccc4c23)ccc1[C@@H](C)NC(=O)c1nc(C(C)(C)C)no1 [Example 5, (R)-3-(tert-butyl)-N-(1-(4-(7-(1-((1-(4-(2,4-dioxotetrahydropyrimidin-1(2H)-yl)phenyl)piperidin-4-yl)methyl)piperidin-4-yl)-9H-pyrimido[4,5-b]indol-4-yl)-2-methylphenyl)ethyl)-1,2,4-oxadiazole-5-carboxamide]		3250 nM
0.394 nM	Cc1cc(-c2ncnc3[nH]c4cc(N5CCN(CC6CCN(c7ccc(N8CCC(=O)NC8=O)cc7)CC6)CC5)ccc4c23)ccc1[C@@H](C)NC(=O)c1nc(C(C)(C)C)no1 [Example 6, (R)-3-(tert-butyl)-N-(1-(4-(7-(4-((1-(4-(2,4-dioxotetrahydropyrimidin-1(2H)-yl)phenyl)piperidin-4-yl)methyl)piperazin-1-yl)-9H-pyrimido[4,5-b]indol-4-yl)-2-methylphenyl)ethyl)-1,2,4-oxadiazole-5-carboxamide]		> 10000 nM
1.27 nM	Cc1cc(-c2ncnc3[nH]c4cc(N5CCN(CC6CCN(c7ccc(N8CCC(=O)NC8=O)cn7)CC6)CC5)ccc4c23)ccc1[C@@H](C)NC(=O)c1nc(C(C)(C)C)no1 [Example 7, (R)-3-(tert-butyl)-N-(1-(4-(7-(4-((1-(5-(2,4-dioxotetrahydropyrimidin-1(2H)-yl)pyridin-2-yl)piperidin-4-yl)methyl)piperazin-1-yl)-9H-pyrimido[4,5-b]indol-4-yl)-2-methylphenyl)ethyl)-1,2,4-oxadiazole-5-carboxamide]		> 10000 nM
0.481 nM	Cc1cc(-c2ncnc3[nH]c4cc(N5CCN(CC6CCN(c7ccc(N8CCC(=O)NC8=O)c(C)c7)CC6)CC5)ccc4c23)ccc1[C@@H](C)NC(=O)c1nc(C(C)(C)C)no1 [Example 8, (R)-3-(tert-butyl)-N-(1-(4-(7-(4-((1-(4-(2,4-dioxotetrahydropyrimidin-1(2H)-yl)-3-methylphenyl)piperidin-4-yl)methyl)piperazin-1-yl)-9H-pyrimido[4,5-b]indol-4-yl)-2-methylphenyl)ethyl)-1,2,4-oxadiazole-5-carboxamide]		> 10000 nM
1.51 nM	Cc1cc(-c2ncnc3[nH]c4cc(C5=CCN(CC6CCN(c7ccc(N8CCC(=O)NC8=O)cc7)CC6)C5)ccc4c23)ccc1[C@@H](C)NC(=O)c1nc(C(C)(C)C)no1 [Example 10, (R)-3-(tert-butyl)-N-(1-(4-(7-(1-((1-(4-(2,4-dioxotetrahydropyrimidin-1(2H)-yl)phenyl)piperidin-4-yl)methyl)-2,5-dihydro-1H-pyrrol-3-yl)-9H-pyrimido[4,5-b]indol-4-yl)-2-methylphenyl)ethyl)-1,2,4-oxadiazole-5-carboxamide]		> 10000 nM
9.78 nM	Cc1cc(-c2ncnc3[nH]c4cc(-c5ccn(CC6CCN(c7ccc(N8CCC(=O)NC8=O)cc7)CC6)c5)ccc4c23)ccc1[C@@H](C)NC(=O)c1nc(C(C)(C)C)no1 [Example 11, (R)-3-(tert-butyl)-N-(1-(4-(7-(1-((1-(4-(2,4-dioxotetrahydropyrimidin-1(2H)-yl)phenyl)piperidin-4-yl)methyl)-1H-pyrrol-3-yl)-9H-pyrimido[4,5-b]indol-4-yl)-2-methylphenyl)ethyl)-1,2,4-oxadiazole-5-carboxamide]		> 10000 nM
0.613 nM	Cc1cc(-c2ncnc3[nH]c4cc(C5CCN(CC6CCN(c7ccc(N8CCC(=O)NC8=O)cc7)CC6)C5)ccc4c23)ccc1[C@@H](C)NC(=O)c1nc(C(C)(C)C)no1 (stereo partly drawn) [Example 12, 3-(tert-butyl)-N-((1R)-1-(4-(7-(1-((1-(4-(2,4-dioxotetrahydropyrimidin-1(2H)-yl)phenyl)piperidin-4-yl)methyl)pyrrolidin-3-yl)-9H-pyrimido[4,5-b]indol-4-yl)-2-methylphenyl)ethyl)-1,2,4-oxadiazole-5-carboxamide]		3640 nM
1.05 nM	Cc1cc(-c2ncnc3[nH]c4cc([C@@H]5CCN(CC6CCN(c7ccc(N8CCC(=O)NC8=O)cc7)CC6)C5)ccc4c23)ccc1[C@@H](C)NC(=O)c1nc(C(C)(C)C)no1 [Example 13, 3-(tert-butyl)-N—((R)-1-(4-(7-((S)-1-((1-(4-(2,4-dioxotetrahydropyrimidin-1(2H)-yl)phenyl)piperidin-4-yl)methyl)pyrrolidin-3-yl)-9H-pyrimido[4,5-b]indol-4-yl)-2-methylphenyl)ethyl)-1,2,4-oxadiazole-5-carboxamide]		3260 nM

From patent publication US20240366770A1, “DEGRADATION OF BRUTON'S TYROSINE KINASE (BTK) BY CONJUGATION OF BTK INHIBITORS WITH E3 LIGASE LIGAND AND METHODS OF USE” (BeiGene Switzerland GmbH, priority 2021, published 2024)
